Results as given in PMC8296708, “The pan HDAC inhibitor Givinostat improves muscle function and histological parameters in two Duchenne muscular dystrophy murine models expressing different haplotypes of the LTBP4 gene” (Skeletal Muscle, 2021).
Read-outs that look alike come from different tables or passages of the source.

Columns and labels:
[1] = Pharmacokinetic study: plasma, blood and quadriceps Givinostat levels after single oral dose (LC-MS/MS); type: in vivo, mdx mice (C57BL/10ScSn-Dmd^mdx/J); details: mdx mice; for Kp: quadriceps muscle and plasma
Experimental: For the PK study, C57BL/10ScSn-Dmd^mdx/J (Stock No: 001801) 9-week-old male mice were purchased from The Jackson Laboratories (Bar Harbor, Maine, USA). After 5 days of acclimatization in the animal facility, mdx mice were randomized into 4 treatment groups (28 mice/group; 4 mice/cage) and 1 untreated group (4 mice) based on their BW. Animals were administered with single oral dose of Givinostat at 5, 10, 25, and 37.5 mg/kg and samples were collected at the following time points: 0.5, 1, 1.5, 2, 3, 4, and 6 h after administration.
In the PK study, formulations were prepared suspending Givinostat in 0.5% methylcellulose at the concentrations of 0.5, 1, 2.5, and 3.75 mg/mL. The administered volume was 10 mL/kg to obtain 5, 10, 25, and 37.5 mg/kg dosages.
Mice were maintained under isoflurane anesthesia. Blood samples were collected in two aliquots from the retro-orbital plexus of mice and transferred into tubes containing heparin as anticoagulant (100 USPunits/mL) and then mice were sacrificed by cervical dislocation. One aliquot of 50 μL was diluted with the same volume of water and immediately frozen in dry ice. This blood was analyzed in order to subtract the blood content of Givinostat from the muscle homogenate. The other aliquot of blood was centrifuged for 10 min at 13,000 rpm at 4 °C and plasma was separated and frozen in dry ice. The quadriceps of the right hindlimb was removed, weighed, and then washed twice in 1 mL of PBS pH 7.4 and dried with paper, then it was frozen in dry ice.
Givinostat was determined in mouse plasma (50 μL) following a protein precipitation (200 μL of 1% HCOOH in acetonitrile) and Ostro (Waters) plate filtration. The organic phase was evaporated under a stream of nitrogen; the residue was re-dissolved in the reconstitution solvent (100 μL of 25% CH3CN-75% H2O-0.05% TFA), and 5 μL was analyzed. Givinostat concentrations were measured by LC-MS/MS method, in the calibration range of 0.5–400 ng/mL.
Givinostat was determined in diluted blood (100 μL, 1:2 in water) with a liquid-liquid extraction. Samples were mixed and extracted with 2 mL of diethyl ether and centrifuged, and the organic phase was separated and evaporated under a stream of nitrogen. The residue was re-dissolved in the reconstitution solvent (150 μL of 25% CH3CN-75% H2O-0.05% TFA), sonicated, and filtered (regenerated cellulose syringe filters), and 5 μL was analyzed by LC-MS/MS method. The calibration range of the method was 1–200 ng/mL.
Mouse quadriceps were homogenized in PBS pH = 7.4 (1:10 w/v) with ultrasonic homogenizer (Sonoplus Mini20 - Bandelin) maintaining the samples in an ice bath. Quadricep homogenate (100 μL) was added with 200 μL of 0.5% TFA in CH3CN, vortexed, and centrifuged. Then, 100 μL of supernatant was diluted with H2O (1:2). Samples were filtered (regenerated cellulose syringe filters) and aliquots of 5 μL were analyzed. Givinostat concentrations were measured by LC-MS/MS method, in the calibration range of 1–40 ng/mL.
PK parameters were evaluated on mean curves using conventional non-compartmental methodology by the software KineticaTM v. 5.1. Quadriceps concentrations were expressed as nanograms per gram of muscle, this value was obtained by multiplying the homogenate concentrations obtained for the homogenate volume, then subtracting the residual blood content, as reported in literature, considering the measured blood concentrations and dividing for the muscle weight.

[2] = system: D2.B10 mice; assay: Histopathological evaluation of severity of myodystrophy in D2.B10 mice; type: in vivo, mouse (D2.B10-Dmd^mdx/J); details: T8 and T16
Experimental: In these experiments, the histopathological evaluation of muscle inflammatory infiltrate, adipose tissue deposition, regeneration, and degeneration of the muscular tissue was also performed. The severity of myodystrophy in the different muscles (TA, GAS and DIA) was quantified through a weighted histopathological method that considered some parameters scored by severity and extension of the injury: muscle degeneration/necrosis, regeneration, inflammatory infiltrate, interstitial reaction, and adipose tissue deposition. Each parameter was classified by severity (mild = 1, moderate = 2, and severe = 3) and extension (focal = 1, multifocal = 2, and diffuse = 3). The individual severity score was calculated for each animal and an average score per group was calculated.

[3] = system: murine models of diastolic dysfunction; design: method as in PMID 29437146; details: drug admixed to the diet; cited from earlier work
[4] = male, C57BL/10ScSn-Dmd^mdx/J (mdx), mouse, blood, 5 mg/kg single oral dose
[5] = male, C57BL/10ScSn-Dmd^mdx/J (mdx), mouse, blood, 10 mg/kg single oral dose
[6] = male, C57BL/10ScSn-Dmd^mdx/J (mdx), mouse, blood, 25 mg/kg single oral dose
[7] = male, C57BL/10ScSn-Dmd^mdx/J (mdx), mouse, blood, 37.5 mg/kg single oral dose
[8] = male, C57BL/10ScSn-Dmd^mdx/J (mdx), mouse, plasma, 5 mg/kg single oral dose
[9] = male, C57BL/10ScSn-Dmd^mdx/J (mdx), mouse, plasma, 10 mg/kg single oral dose
[10] = male, C57BL/10ScSn-Dmd^mdx/J (mdx), mouse, plasma, 25 mg/kg single oral dose
[11] = male, C57BL/10ScSn-Dmd^mdx/J (mdx), mouse, plasma, 37.5 mg/kg single oral dose

For `CCN(CC)Cc1ccc2cc(COC(=O)Nc3ccc(C(=O)NO)cc3)ccc2c1` [Givinostat], which “Detectability in plasma, blood and muscle samples after oral treatment” value ([1]; all doses investigated (5-37.5 mg/kg p.o.)) is on record?
The value was “detectable in all plasma, blood, and muscle samples up to 6 h”.

And the blood plasma ratio ([1]; male, C57BL/10ScSn-Dmd^mdx/J (mdx), mouse, blood and plasma, 5 mg/kg single oral dose, read-out: AUCtot Blood/Plasma ratio)?
Its blood plasma ratio is 1.6.

And the blood plasma ratio ([1]; male, C57BL/10ScSn-Dmd^mdx/J (mdx), mouse, blood and plasma, 25 mg/kg single oral dose, read-out: AUCtot Blood/Plasma ratio)?
The blood plasma ratio was 1.5.

And the blood plasma ratio ([1]; male, C57BL/10ScSn-Dmd^mdx/J (mdx), mouse, blood and plasma, 37.5 mg/kg single oral dose, read-out: AUCtot Blood/Plasma ratio)?
Its blood plasma ratio is 1.4.

And the blood plasma ratio ([1]; male, C57BL/10ScSn-Dmd^mdx/J (mdx), mouse, blood and plasma, mean over 5, 10, 25, 37.5 mg/kg oral doses, read-out: AUCtot Blood/Plasma ratio, mean)?
Its blood plasma ratio is 1.6.

And the Cmax ([1]; male, C57BL/10ScSn-Dmd^mdx/J (mdx), mouse, blood, po, 5 mg/kg, blood, 5 mg/kg single oral dose, read-out: Cmax)?
The Cmax was 35.1 ng/mL.

And the Cmax ([1]; male, C57BL/10ScSn-Dmd^mdx/J (mdx), mouse, blood, po, 10 mg/kg, blood, 10 mg/kg single oral dose, read-out: Cmax)?
The Cmax was 170 ng/mL.

And the Cmax ([1]; male, C57BL/10ScSn-Dmd^mdx/J (mdx), mouse, blood, po, 25 mg/kg, blood, 25 mg/kg single oral dose, read-out: Cmax)?
Its Cmax is 639 ng/mL.

What about the Cmax ([1]; male, C57BL/10ScSn-Dmd^mdx/J (mdx), mouse, blood, po, 37.5 mg/kg, blood, 37.5 mg/kg single oral dose, read-out: Cmax) of the same molecule?
The Cmax was 1120 ng/mL.

What about the Cmax ([1]; male, C57BL/10ScSn-Dmd^mdx/J (mdx), mouse, plasma, po, 5 mg/kg, plasma, 5 mg/kg single oral dose, read-out: Cmax) of the same molecule?
Its Cmax is 24 ng/mL.

What about the Cmax ([1]; male, C57BL/10ScSn-Dmd^mdx/J (mdx), mouse, plasma, po, 10 mg/kg, plasma, 10 mg/kg single oral dose, read-out: Cmax) of the same molecule?
Its Cmax is 96.7 ng/mL.

What about the Cmax ([1]; male, C57BL/10ScSn-Dmd^mdx/J (mdx), mouse, plasma, po, 25 mg/kg, plasma, 25 mg/kg single oral dose, read-out: Cmax) of the same molecule?
The Cmax was 416 ng/mL.

What about the Cmax ([1]; male, C57BL/10ScSn-Dmd^mdx/J (mdx), mouse, plasma, po, 37.5 mg/kg, plasma, 37.5 mg/kg single oral dose, read-out: Cmax) of the same molecule?
Its Cmax is 807 ng/mL.

And the Kp ([1]; male, C57BL/10ScSn-Dmd^mdx/J (mdx), mouse, po, 5 mg/kg, 5 mg/kg single oral dose, read-out: AUCtot Muscle/Plasma ratio)?
The Kp was 6.2.

And the Kp ([1]; male, C57BL/10ScSn-Dmd^mdx/J (mdx), mouse, po, 10 mg/kg, 10 mg/kg single oral dose, read-out: AUCtot Muscle/Plasma ratio)?
Its Kp is 5.8.

What about the Kp ([1]; male, C57BL/10ScSn-Dmd^mdx/J (mdx), mouse, po, 25 mg/kg, 25 mg/kg single oral dose, read-out: AUCtot Muscle/Plasma ratio) of the same molecule?
Its Kp is 2.8.

What about the Kp ([1]; male, C57BL/10ScSn-Dmd^mdx/J (mdx), mouse, po, 37.5 mg/kg, 37.5 mg/kg single oral dose, read-out: AUCtot Muscle/Plasma ratio) of the same molecule?
The Kp was 3.2.

What about the Kp ([1]; male, C57BL/10ScSn-Dmd^mdx/J (mdx), mouse, po, 37.5 mg/kg, mean over 5, 10, 25, 37.5 mg/kg oral doses, read-out: AUCtot Muscle/Plasma ratio, mean) of the same molecule?
The Kp was about 4.5.

What about the Cmax ([1]; male, C57BL/10ScSn-Dmd^mdx/J (mdx), mouse, quadriceps muscle, po, 5 mg/kg, muscle (quadriceps), 5 mg/kg single oral dose, read-out: Cmax) of the same molecule?
Its Cmax is 117 ng/g.

What about the Cmax ([1]; male, C57BL/10ScSn-Dmd^mdx/J (mdx), mouse, quadriceps muscle, po, 10 mg/kg, muscle (quadriceps), 10 mg/kg single oral dose, read-out: Cmax) of the same molecule?
Its Cmax is 197 ng/g.

And the Cmax ([1]; male, C57BL/10ScSn-Dmd^mdx/J (mdx), mouse, quadriceps muscle, po, 25 mg/kg, muscle (quadriceps), 25 mg/kg single oral dose, read-out: Cmax)?
Its Cmax is 607 ng/g.

And the Cmax ([1]; male, C57BL/10ScSn-Dmd^mdx/J (mdx), mouse, quadriceps muscle, po, 37.5 mg/kg, muscle (quadriceps), 37.5 mg/kg single oral dose, read-out: Cmax)?
Its Cmax is 1180 ng/g.

And the blood plasma ratio ([1]; male, C57BL/10ScSn-Dmd^mdx/J (mdx), mouse, whole blood and plasma, 10 mg/kg single oral dose, read-out: AUCtot Blood/Plasma ratio)?
Its blood plasma ratio is 1.8.

What about the AUC [1, 4] of the same molecule?
Its AUC is 156 ng·h/mL.

What about the Tmax [1, 4] of the same molecule?
The Tmax was 3 h.

And the AUC [1, 5]?
Its AUC is 458 ng·h/mL.

And the Tmax [1, 5]?
Its Tmax is 2 h.

And the AUC [1, 6]?
The AUC was 1810 ng·h/mL.

And the Tmax [1, 6]?
Its Tmax is 1.5 h.

What about the AUC [1, 7] of the same molecule?
Its AUC is 2180 ng·h/mL.

And the Tmax [1, 7]?
Its Tmax is 0.5 h.

And the Tmax ([1]; male, C57BL/10ScSn-Dmd^mdx/J (mdx), mouse, muscle (quadriceps), 5 mg/kg single oral dose)?
Its Tmax is 3 h.

And the Tmax ([1]; male, C57BL/10ScSn-Dmd^mdx/J (mdx), mouse, muscle (quadriceps), 10 mg/kg single oral dose)?
The Tmax was 2 h.

What about the Tmax ([1]; male, C57BL/10ScSn-Dmd^mdx/J (mdx), mouse, muscle (quadriceps), 25 mg/kg single oral dose) of the same molecule?
Its Tmax is 2 h.

What about the Tmax ([1]; male, C57BL/10ScSn-Dmd^mdx/J (mdx), mouse, muscle (quadriceps), 37.5 mg/kg single oral dose) of the same molecule?
Its Tmax is 0.5 h.

And the AUC [1, 8]?
Its AUC is 95.2 ng·h/mL.

What about the Tmax [1, 8] of the same molecule?
The Tmax was 0.5 h.

What about the AUC [1, 9] of the same molecule?
Its AUC is 261 ng·h/mL.

And the Tmax [1, 9]?
Its Tmax is 2 h.

And the AUC [1, 10]?
Its AUC is 1230 ng·h/mL.

And the Tmax [1, 10]?
Its Tmax is 1.5 h.

And the AUC [1, 11]?
The AUC was 1510 ng·h/mL.

And the Tmax [1, 11]?
Its Tmax is 0.5 h.

What about the “AUCtot Muscle/Plasma ratio, mean” value ([1]; mean over 5, 10, 25, 37.5 mg/kg oral doses, listed as ITF2357) of the same molecule?
Its value is 4.5.

What about the AUCtot ([1]; muscle (quadriceps), 5 mg/kg single oral dose) of the same molecule?
The AUCtot was 594.4 ng·h/g.

What about the AUCtot ([1]; muscle (quadriceps), 10 mg/kg single oral dose) of the same molecule?
Its AUCtot is 1511.9 ng·h/g.

And the AUCtot ([1]; muscle (quadriceps), 25 mg/kg single oral dose)?
The AUCtot was 3511.2 ng·h/g.

What about the AUCtot ([1]; muscle (quadriceps), 37.5 mg/kg single oral dose) of the same molecule?
The AUCtot was 4804.6 ng·h/g.

What about the Cmax ([1]; plasma, 5 mg/kg single oral dose, listed as ITF2357, 5 mg/kg) of the same molecule?
The Cmax was 24.17 ng/mL.

And the Cmax ([1]; plasma, 37.5 mg/kg single oral dose, listed as ITF2357, 37.5 mg/kg)?
The Cmax was 807.39 ng/mL.

What about the “Histological evaluation of inflammatory infiltrate, adipose tissue deposition, regeneration, degeneration” value [2] of the same molecule?
Its value is “not significantly different among the treatment groups”.

And the “Efficacy in two murine models of diastolic dysfunction with preserved ejection fraction” value [3]?
The value was “highly efficacious”.
